# Where a name gives a salt, the structure may show the parent alone. Numbered stars: 1 amine (or outer) side, 2 acyl side, 3 side chain; on linkers, the order of the positions; unused ones are H or OH. Bridge positions count the residues as written; N and C are the ends. Square brackets hold non-standard residues; d marks the D form. Peptide text beside a SMILES is read from it. I, II: the chains in the order shown. * marks the point of attachment. Actinocin(9to1) = Cc1c2oc3c(C)ccc(C(=O)[*:1])c3nc-2c(C(=O)[*:2])c(N)c1=O; NMeV = CN[C@H](C(=O)O)C(C)C; Cbz = O=C(OCc1ccccc1)*; Sar = CNCC(=O)O
# System: PRKACA-PRKAR2A interaction (SmBiT-PRKACA / LgBiT-PRKAR2A), protein kinase A
# Design: NanoLuc complementation counter-screen in cell extract, PRKACA with PRKAR2A, loss of luminescence, detects NanoLuc interference
# Settings: counter-screen for NanoLuc interference, 0.5 h, 20 µM, inhibitor, Inh (PKA)
row,Inh (PKA) [%],SMILES
1,4.187,"CCCc1nn(C)c2c(=O)[nH]c(-c3cc(S(=O)(=O)N4CCN(C)CC4)ccc3OCC)nc12 [UM0141781:01, Sildenafil Citrate]"
2,1.747,"O=C(O)/C=C/c1ccc(Cn2ccnc2)cc1 [UM0141799:01, Ozagrel]"
3,3.817,"O=C(/C=C/c1cccnc1)NCCCCC1CCN(C(=O)c2ccccc2)CC1 [UM0141821:01, FK866 (APO866)]"
4,-0.0222,"Nc1nc2[nH]cc(CCc3ccc(C(=O)N[C@@H](CCC(=O)O)C(=O)O)cc3)c2c(=O)[nH]1 [UM0141829:01, Pemetrexed]"
5,0.7441,"CC(=O)O[C@@]12CO[C@@H]1C[C@H](O)[C@@]1(C)C(=O)[C@H](O)C3=C(C)[C@@H](OC(=O)[C@H](O)[C@@H](NC(=O)OC(C)(C)C)c4ccccc4)C[C@@](O)([C@@H](OC(=O)c4ccccc4)[C@H]21)C3(C)C [UM0141830:01, Docetaxel]"

# Same assay, conditions: counter-screen for NanoLuc interference; 0.5 h, 20 µM; inhibitor
row,SMILES,Inh (PKA) [%]
1,"Cc1cc(SCc2sc(-c3ccc(C(F)(F)F)c(F)c3)nc2C)ccc1OCC(=O)O [UM0141775:01, GW0742]",20.87
2,"CC(C)c1nc(CN(C)C(=O)N[C@@H](CCN2CCOCC2)C(=O)N[C@H](CC[C@H](Cc2ccccc2)NC(=O)OCc2cncs2)Cc2ccccc2)cs1 [UM0141776:01, Cobicistat (GS-9350)]",4.362
3,"CC(C)c1cc(C(C)C)c(CC(=O)NS(=O)(=O)Oc2c(C(C)C)cccc2C(C)C)c(C(C)C)c1 [UM0141778:01, Avasimibe]",69.24
4,"CCCc1nc(C)c2c(O)nc(-c3cc(S(=O)(=O)N4CCN(CC)CC4)ccc3OCC)nn12 [UM0141782:01, Vardenafil HCl Trihydrate]",3.783
5,"Cn1cc(-c2ccncc2)c(-c2ccc(OCc3ccc4ccccc4n3)cc2)n1 [UM0141784:01, PF-2545920]",39.54
6,"COc1cccc(Nc2c(C(N)=O)cnc3c(C)cc(S(=O)(=O)c4cccc(C(=O)N(C)C)c4)cc23)c1 [UM0141788:01, GSK256066]",11.7
7,"NCc1c[nH]c(=S)n1[C@H]1CCc2c(F)cc(F)cc2C1 [UM0141789:01, Nepicastat (SYN-117) HCl]",5.542
8,"O=C(O)CCCCC(CCSCc1ccccc1)SCc1ccccc1 (centres unmarked) [UM0141790:01, CPI-613]",31.69
9,"COc1c(C)c2c(c(O)c1C/C=C(\C)CCC(=O)OCCN1CCOCC1)C(=O)OC2 [UM0141793:01, Mycophenolate Mofetil]",3.705
10,"COc1ccc(-c2nc3cc(C4=NNC(=O)CC4C)ccc3[nH]2)cc1 (centres unmarked) [UM0141796:01, Pimobendan]",10.77
11,"COc1ccc(-n2nc(C(N)=O)c3c2C(=O)N(c2ccc(N4CCCCC4=O)cc2)CC3)cc1 [UM0141797:01, Apixaban]",1.88
12,"Oc1cc(O)c(Cl)cn1 [UM0141798:01, Gimeracil]",0.03154
13,"C[C@]12CC[C@H]3[C@@H](CC[C@@]45O[C@@H]4C(O)=C(C#N)C[C@]35C)[C@@H]1CC[C@@H]2O [UM0141801:01, Trilostane]",1.891
14,"O=C(NNc1ccccc1)c1ccncc1 [UM0141803:01, PluriSIn #1 (NSC 14613)]",1.467
15,"CC(C)C[C@@H](C(=O)N[C@H](C(=O)OC1CCCC1)c1ccccc1)[C@H](O)C(=O)NO [UM0141805:01, Tosedostat (CHR2797)]",5.594
16,"CCc1c(C(=O)C(N)=O)c2c(OCC(=O)O)cccc2n1Cc1ccccc1 [UM0141806:01, Varespladib (LY315920)]",1.134
17,"NS(=O)(=O)c1ccc(NC(=O)Nc2ccc(F)cc2)cc1 [UM0141807:01, U-104]",3.096
18,"CC1(C)O[C@@H]2[C@@H](CO[C@@]3(COS(N)(=O)=O)OC(C)(C)O[C@@H]23)O1 [UM0141808:01, Topiramate]",0.4952

row,SMILES,Inh (PKA) [%]
1,"CC(C)n1c(/C=C/[C@@H](O)C[C@@H](O)CC(=O)O)c(-c2ccc(F)cc2)c2ccccc21 [UM0141809:01, Fluvastatin Sodium]",14.88
2,"C#CCN[C@@H]1CCc2ccccc21 [UM0141810:01, Rasagiline Mesylate]",2.611
3,"CC[C@H](C)C(=O)O[C@H]1C[C@H](O)C=C2C=C[C@H](C)[C@H](CC[C@@H](O)C[C@@H](O)CC(=O)O)[C@H]21 [UM0141813:01, Pravastatin sodium]",0.8236
4,"NC(=O)c1cccc(-c2cccc(OC(=O)NC3CCCCC3)c2)c1 [UM0141814:01, URB597]",16.26
5,"COc1cc(F)c(C(C)C)cc1-c1ccc(C(F)(F)F)cc1CN1C(=O)O[C@H](c2cc(C(F)(F)F)cc(C(F)(F)F)c2)[C@@H]1C [UM0141816:01, Anacetrapib (MK-0859)]",-2.323
6,"CCC(CC)CC1(C(=O)Nc2ccccc2SC(=O)C(C)C)CCCCC1 [UM0141817:01, Dalcetrapib (JTT-705, RO4607381)]",16.33
7,"Cc1cc(C)c2c(c1)[C@@H](N(Cc1cc(C(F)(F)F)cc(C(F)(F)F)c1)c1nnn(C)n1)CCCN2C[C@H]1CC[C@H](C(=O)O)CC1 [UM0141818:01, Evacetrapib (LY2484595)]",12.81
8,"CCOC(=O)N1c2ccc(C(F)(F)F)cc2[C@@H](N(Cc2cc(C(F)(F)F)cc(C(F)(F)F)c2)C(=O)OC)C[C@H]1CC [UM0141819:01, Torcetrapib]",4.254
9,"O=C(Nc1ccccc1)Nc1ccc(-c2ccc(C(=O)[C@@H]3CCC[C@H]3C(=O)O)cc2)cc1 [UM0141822:01, A922500]",32.88
10,"Cc1ccc(C(=O)c2cc(O)c(O)c([N+](=O)[O-])c2)cc1 [UM0141823:01, Tolcapone]",63.96
11,"CC(C)c1cc(-c2n[nH]c(=O)n2-c2ccc3c(ccn3C)c2)c(O)cc1O [UM0141825:01, Ganetespib (STA-9090)]",30.75
12,"CN(NC(=O)CC(=O)NN(C)C(=S)c1ccccc1)C(=S)c1ccccc1 [UM0141826:01, Elesclomol (STA-4783)]",1.652
13,"CO[C@@H]1[C@H](OC(=O)/C=C/C=C/C=C/C=C/C(=O)O)CC[C@]2(CO2)[C@H]1[C@@]1(C)O[C@@H]1CC=C(C)C [UM0141832:01, Fumagillin]",0.06739
14,"CC(C)[C@H](NC(=O)OCc1ccccc1)C(=O)N[C@H](C=O)Cc1ccccc1 [UM0141833:01, MDL 28170] (Cbz-Val-Phe-aldehyde)",3.195
15,"N#Cc1ccc(NCCNCC(=O)N2CCC[C@H]2C#N)nc1 [UM0141834:01, NVP DPP 728 dihydrochloride]",-0.6384
16,"Cc1c2oc3c(C)ccc(C(=O)N[C@@H]4C(=O)N[C@H](C(C)C)C(=O)N5CCC[C@H]5C(=O)N(C)CC(=O)N(C)[C@@H](C(C)C)C(=O)O[C@@H]4C)c3nc-2c(C(=O)N[C@@H]2C(=O)N[C@H](C(C)C)C(=O)N3CCC[C@H]3C(=O)N(C)CC(=O)N(C)[C@@H](C(C)C)C(=O)O[C@@H]2C)c(N)c1=O [UM0141835:01, Actinomycin D] (I: T[dV]P[Sar][NMeV] / II: T[dV]P[Sar][NMeV]; ester I:1-I:C, II:1-II:C; linker I:N-II:N via Actinocin(9to1))",21.28
17,"COc1cc(-n2c(=S)[nH]c3ccccc3c2=O)c(Cl)cc1Cl [UM0141840:01, Mdivi 1]",54.95

# Now from value to compound:
row,Inh (PKA) [%],SMILES
1,1.324,"CCOc1cc([C@@H](CS(C)(=O)=O)N2C(=O)c3cccc(NC(C)=O)c3C2=O)ccc1OC [UM0141777:01, Apremilast (CC-10004)]"
2,21.52,"O=C(Nc1c(Cl)cncc1Cl)c1ccc(OC(F)F)c(OCC2CC2)c1 [UM0141779:01, Roflumilast]"
3,0.951,"C[C@@H](c1ncncc1F)[C@](O)(Cn1cncn1)c1ccc(F)cc1F [UM0141780:01, Voriconazole]"
4,13.53,"CCc1ccc(CCOc2ccc(CC3SC(=O)NC3=O)cc2)nc1 (centres unmarked) [UM0141783:01, Pioglitazone HCl]"
5,0.0216,"CNC(=O)c1ccc2cc([C@@]3(O)CCn4cncc43)ccc2c1 [UM0141785:01, TAK-700 (Orteronel)]"
6,-0.06153,"COc1ccc(C2CNC(=O)C2)cc1OC1CCCC1 (centres unmarked) [UM0141786:01, Rolipram]"
7,3.135,"COc1ccc([C@H]2CNC(=O)C2)cc1OC1CCCC1 [UM0141786:02, S- (+)-Rolipram]"
8,0.1397,"COc1ccc([C@]2(C#N)CC[C@@H](C(=O)O)CC2)cc1OC1CCCC1 [UM0141787:01, Cilomilast]"
9,18.48,"COc1ccc(CNc2nc(N3CCC[C@H]3CO)ncc2C(=O)NCc2ncccn2)cc1Cl [UM0141791:01, Avanafil]"
10,3.84,"O=C(NC[C@H]1CN(c2ccc(N3CCOCC3=O)cc2)C(=O)O1)c1ccc(Cl)s1 [UM0141794:01, Rivaroxaban]"
11,4.354,"Cc1ccccc1C(C(=O)NC1CCCCC1)N(C(=O)Cn1ccnc1C)c1cccc(F)c1 (centres unmarked) [UM0141795:01, AGI-5198]"
12,15.63,"O=C(O)Cn1nnc(-c2cc(N3CCC(Oc4cc(F)ccc4Br)CC3)no2)n1 [UM0141800:01, MK-8245]"
13,2.023,"C#CCC(Cc1cnc2nc(N)nc(N)c2n1)c1ccc(C(=O)N[C@@H](CCC(=O)O)C(=O)O)cc1 (some centres unmarked) [UM0141802:01, Pralatrexate]"
14,2.161,"O=C1CN2Cc3c(ccc(Cl)c3Cl)N=C2N1 [UM0141804:01, Anagrelide HCl]"
15,2.51,"C[C@H](NCc1ccc(OCc2cccc(F)c2)cc1)C(N)=O [UM0141812:01, Safinamide Mesylate]"
16,11.04,"NC(=O)N1CCC(CC(=O)N2CCC([C@H]3c4ncc(Br)cc4CCc4cc(Cl)cc(Br)c43)CC2)CC1 [UM0141820:01, Lonafarnib]"
17,1.569,"Nc1ncnc2c1C(=O)N(c1ccc([C@H]3CC[C@H](CC(=O)O)CC3)cc1)CCO2 [UM0141824:01, PF-04620110]"
18,36.57,"N#Cc1ccc(COC[C@H]2O[C@@H](n3c(NCc4ccc(Cl)c(Cl)c4)nc4c(N)ncnc43)[C@H](O)[C@@H]2O)cc1 [UM0141827:01, VER 155008]"
19,5.956,"CC[C@@H](C)Nc1cc(C(=O)N[C@H]2C[C@H]3CC[C@@H](C2)N3c2ccc(C(=O)C3CC3)cn2)c(C)cc1C(N)=O [UM0141828:01, XL-888]"

# Source: paper PMC9995496, “A screen for MeCP2-TBL1 interaction inhibitors using a luminescence-based assay” (Scientific Reports, 2023)
